Data as given in patent US11572399B2, “Long-acting GIP peptide analogues” (University of Copenhagen, priority 2017, dated 2023).
Peptide text beside a SMILES is read from it. * marks the point of attachment. C16 diacid = O=C(O)CCCCCCCCCCCCCCC(=O)*; Stearoyl = CCCCCCCCCCCCCCCCCC(=O)*

Assays:
[1] = target: T1, human GIP receptor (Homo sapiens, UniProt P48546); assay: cAMP accumulation assay, agonism (ligand alone); type: cell-based; conditions: COS-7 cells, Table 1; for Emax: COS-7, intrinsic cAMP activity
T1 construct: host or cells: COS-7, transient transfection (calcium phosphate), cDNA in pCMV-Script
T1 sequence (P48546 22-466): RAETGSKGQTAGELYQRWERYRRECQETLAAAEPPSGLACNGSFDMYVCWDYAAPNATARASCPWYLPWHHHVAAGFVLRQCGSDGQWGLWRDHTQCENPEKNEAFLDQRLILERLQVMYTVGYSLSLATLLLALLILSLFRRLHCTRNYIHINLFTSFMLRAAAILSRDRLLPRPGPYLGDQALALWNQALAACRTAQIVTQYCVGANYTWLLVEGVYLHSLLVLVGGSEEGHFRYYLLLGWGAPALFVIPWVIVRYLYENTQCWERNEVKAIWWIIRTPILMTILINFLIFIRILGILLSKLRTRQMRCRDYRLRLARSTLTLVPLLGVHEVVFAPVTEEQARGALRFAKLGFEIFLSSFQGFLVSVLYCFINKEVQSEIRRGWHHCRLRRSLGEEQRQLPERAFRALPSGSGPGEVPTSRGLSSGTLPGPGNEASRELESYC

[2] = target: T1, human GIP receptor; assay: cAMP accumulation assay, antagonism of a GIP-mediated cAMP response (50-80% of max); type: cell-based; conditions: for cAMP - antagonisme fold (paired): fold vs GIP(3-30)NH2, Table 3b; for IC50: transiently transfected COS-7 cells, Table 1 and text, read-out: cAMP antagonism nM (IC50, antagonistic potency); for Fold change of IC50 versus GIP(5-30)NH2: fold change of IC50 from GIP(5-30)NH2
Procedure: The day after, the cells were washed twice with Hepes buffered saline (HBS) buffer and incubated with HBS and 1 mM 3-isobutyl-1-methylxanthine (IBMX) for 30 min at 37° C. […] The HitHunter™ cAMP XS assay (DiscoveRx) was carried out according to the manufacturer's instructions.

[3] = target: T1, human GIP receptor; assay: 125I-human GIP competition binding assay, in the presence and absence of 2% HSA; conditions: for Binding fold (paired): fold decrease in affinity compared to GIP(3-30)NH2; for Fold change in affinity, IC50 (plus HSA)/IC50 (minus HSA): presence vs absence of 2% HSA, proxy for albumin binding; for Fold change HSA (2%)/Casein (0.1%): IC50 (plus HSA)/IC50 (minus HSA); for Binding (+/−HSA) Fold: fold change +HSA/−HSA; for Ki: presence of 2% HSA;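 on all read-outs here: nonspecific binding taken as radioligand bound to untransfected cells, IC50 obtained from nonlinear regression fits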
[4] = 0.1% casein, no HSA, Table 3b, read-out: Binding logIC50 0.1% casein (converted)
[5] = Table 3b, initial data, read-out: Binding IC50
[6] = heterologous competition binding, transiently transfected COS-7 cells expressing the human GIP receptor, read-out: Binding
[7] = binding in 0.1% casein (absence of HSA), log value, read-out: logIC50 0.1% casein (converted)
[8] = binding in presence of 2% HSA, read-out: logIC50 2% HSA (converted)

`CC[C@H](C)[C@H](NC(=O)[C@H](CO)NC(=O)[C@H](Cc1ccc(O)cc1)NC(=O)[C@H](CC(=O)O)NC(=O)[C@H](CO)NC(=O)[C@@H](NC(=O)[C@H](Cc1ccccc1)NC(=O)[C@@H](NC(=O)CNC(=O)[C@@H](N)CCC(=O)O)[C@@H](C)O)[C@@H](C)CC)C(=O)N[C@@H](C)C(=O)N[C@@H](CCSC)C(=O)N[C@@H](CC(=O)O)C(=O)N[C@@H](CCCCN)C(=O)N[C@H](C(=O)N[C@@H](CCCCNC(=O)CCCCCCCCCCCCCCC(=O)O)C(=O)N[C@@H](CCC(N)=O)C(=O)N[C@@H](CCC(N)=O)C(=O)N[C@@H](CC(=O)O)C(=O)N[C@@H](Cc1ccccc1)C(=O)N[C@H](C(=O)N[C@@H](CC(N)=O)C(=O)N[C@@H](Cc1c[nH]c2ccccc12)C(=O)N[C@@H](CC(C)C)C(=O)N[C@@H](CC(C)C)C(=O)N[C@@H](C)C(=O)N[C@@H](CCC(N)=O)C(=O)N[C@@H](CCCCN)C(N)=O)C(C)C)[C@@H](C)CC` [AT158, [hGIP(3-30)NH2[H18K]-C16diacid/18]] (H-EGTFISDYSIAMDKIK(C16 diacid)QQDFVNWLLAQK-NH2; N-terminus assumed) was tested, and the Emax [1] was 6%, the “cAMP - antagonisme fold (paired)” value [2] was 0.1 fold and the IC50 [2] was 5 nM. The IC50 [3, 4] was 7.9 nM, the IC50 ([3]; 2% HSA, Table 3b, read-out: Binding logIC50 2% HSA (converted)) was 16 nM and the IC50 [3, 5] was 7.9 nM. For the same compound, the “Binding fold (paired)” value ([3]; Table 3b) was 1 fold and the “Fold change in affinity, IC50 (plus HSA)/IC50 (minus HSA)” value (“Fold change in affinity … (minus HSA)” for short) [3] was 2.0 fold.

`CCCCCCCCCCCCCCCCCC(=O)NCCCC[C@H](NC(=O)[C@@H](NC(=O)[C@H](CCCCN)NC(=O)[C@H](CC(=O)O)NC(=O)[C@H](CCSC)NC(=O)[C@H](C)NC(=O)[C@@H](NC(=O)[C@H](CO)NC(=O)[C@H](Cc1ccc(O)cc1)NC(=O)[C@H](CC(=O)O)NC(=O)[C@H](CO)NC(=O)[C@@H](NC(=O)[C@H](Cc1ccccc1)NC(=O)[C@@H](NC(=O)CNC(=O)[C@@H](N)CCC(=O)O)[C@@H](C)O)[C@@H](C)CC)[C@@H](C)CC)[C@@H](C)CC)C(=O)N[C@@H](CCC(N)=O)C(=O)N[C@@H](CCC(N)=O)C(=O)N[C@@H](CC(=O)O)C(=O)N[C@@H](Cc1ccccc1)C(=O)N[C@H](C(=O)N[C@@H](CC(N)=O)C(=O)N[C@@H](Cc1c[nH]c2ccccc12)C(=O)N[C@@H](CC(C)C)C(=O)N[C@@H](CC(C)C)C(=O)N[C@@H](C)C(=O)N[C@@H](CCC(N)=O)C(=O)N[C@@H](CCCCN)C(N)=O)C(C)C` [AT160, [hGIP(3-30)NH2[H18K]-C18/18]] (H-EGTFISDYSIAMDKIK(Stearoyl)QQDFVNWLLAQK-NH2; N-terminus assumed) was tested, and the Emax [1] was 13%, the EC50 ([1]; read-out: cAMP agonism nM (EC50)) was 962 nM and the “cAMP - antagonisme fold (paired)” value [2] was 0.7 fold. For the same compound, the IC50 [2] was 38 nM, the IC50 [3, 4] was 48.8 nM and the IC50 [3, 5] was 48.8 nM. For the same compound, the “Binding fold (paired)” value ([3]; Table 3b) was 6 fold, the IC50 [3, 6] was 49 nM and the “Fold change in affinity … (minus HSA)” value [3] was 3.6 fold.

`CC[C@H](C)[C@H](NC(=O)[C@H](CO)NC(=O)[C@H](Cc1ccc(O)cc1)NC(=O)[C@H](CC(=O)O)NC(=O)[C@H](CO)NC(=O)[C@@H](NC(=O)[C@H](CCCCNC(=O)CCCCCCCCCCCCCCC(=O)O)NC(=O)[C@@H](N)[C@@H](C)O)[C@@H](C)CC)C(=O)N[C@@H](C)C(=O)N[C@@H](CCSC)C(=O)N[C@@H](CC(=O)O)C(=O)N[C@@H](CCCCN)C(=O)N[C@H](C(=O)N[C@@H](Cc1c[nH]cn1)C(=O)N[C@@H](CCC(N)=O)C(=O)N[C@@H](CCC(N)=O)C(=O)N[C@@H](CC(=O)O)C(=O)N[C@@H](Cc1ccccc1)C(=O)N[C@H](C(=O)N[C@@H](CC(N)=O)C(=O)N[C@@H](Cc1c[nH]c2ccccc12)C(=O)N[C@@H](CC(C)C)C(=O)N[C@@H](CC(C)C)C(=O)N[C@@H](C)C(=O)N[C@@H](CCC(N)=O)C(=O)N[C@@H](CCCCN)C(N)=O)C(C)C)[C@@H](C)CC` [AT168, [hGIP(5-30)NH2[F6K]-C16diacid/6]] was tested, and the Emax [1] was 0%, the “Fold change of IC50 versus GIP(5-30)NH2” value [2] was 5.3 and the “Fold change HSA (2%)/Casein (0.1%)” value [3] was 2.0. For the same compound, the IC50 [3, 7] was 50.1 nM, the IC50 [3, 8] was 100 nM and the “Binding (+/−HSA) Fold” value [3] was 2.3. It also gave an IC50 [3, 6] of 48 nM.

With `CC[C@H](C)[C@H](NC(=O)[C@H](CO)NC(=O)[C@H](Cc1ccc(O)cc1)NC(=O)[C@H](CC(=O)O)NC(=O)[C@H](CO)NC(=O)[C@H](CCCCNC(=O)CCCCCCCCCCCCCCC(=O)O)NC(=O)[C@H](Cc1ccccc1)NC(=O)[C@@H](N)[C@@H](C)O)C(=O)N[C@@H](C)C(=O)N[C@@H](CCSC)C(=O)N[C@@H](CC(=O)O)C(=O)N[C@@H](CCCCN)C(=O)N[C@H](C(=O)N[C@@H](Cc1c[nH]cn1)C(=O)N[C@@H](CCC(N)=O)C(=O)N[C@@H](CCC(N)=O)C(=O)N[C@@H](CC(=O)O)C(=O)N[C@@H](Cc1ccccc1)C(=O)N[C@H](C(=O)N[C@@H](CC(N)=O)C(=O)N[C@@H](Cc1c[nH]c2ccccc12)C(=O)N[C@@H](CC(C)C)C(=O)N[C@@H](CC(C)C)C(=O)N[C@@H](C)C(=O)N[C@@H](CCC(N)=O)C(=O)N[C@@H](CCCCN)C(N)=O)C(C)C)[C@@H](C)CC` [AT169, [hGIP(5-30)NH2[I7K]-C16diacid/7]] the Emax [1] was 0%, the “Fold change of IC50 versus GIP(5-30)NH2” value [2] was 3.0 and the IC50 [2] was 37 nM. The “Fold change HSA (2%)/Casein (0.1%)” value [3] was 5.8, the IC50 [3, 7] was 31.6 nM and the IC50 [3, 8] was 166 nM. For the same compound, the “Binding (+/−HSA) Fold” value [3] was 4.8, the IC50 [3, 6] was 28 nM and the Ki [3] was 126 nM. The “Fold change in affinity … (minus HSA)” value [3] was 5.8 fold.

In the case of `CC[C@H](C)[C@H](NC(=O)[C@H](CO)NC(=O)[C@H](Cc1ccc(O)cc1)NC(=O)[C@H](CC(=O)O)NC(=O)[C@H](CCCCNC(=O)CCCCCCCCCCCCCCC(=O)O)NC(=O)[C@@H](NC(=O)[C@H](Cc1ccccc1)NC(=O)[C@@H](N)[C@@H](C)O)[C@@H](C)CC)C(=O)N[C@@H](C)C(=O)N[C@@H](CCSC)C(=O)N[C@@H](CC(=O)O)C(=O)N[C@@H](CCCCN)C(=O)N[C@H](C(=O)N[C@@H](Cc1c[nH]cn1)C(=O)N[C@@H](CCC(N)=O)C(=O)N[C@@H](CCC(N)=O)C(=O)N[C@@H](CC(=O)O)C(=O)N[C@@H](Cc1ccccc1)C(=O)N[C@H](C(=O)N[C@@H](CC(N)=O)C(=O)N[C@@H](Cc1c[nH]c2ccccc12)C(=O)N[C@@H](CC(C)C)C(=O)N[C@@H](CC(C)C)C(=O)N[C@@H](C)C(=O)N[C@@H](CCC(N)=O)C(=O)N[C@@H](CCCCN)C(N)=O)C(C)C)[C@@H](C)CC` [AT170, [hGIP(5-30)NH2[S8K]-C16diacid/8]] (H-TFIK(C16 diacid)DYSIAMDKIHQQDFVNWLLAQK-NH2; N-terminus assumed), the Emax [1] is reported as 0%, the “Fold change of IC50 versus GIP(5-30)NH2” value [2] is reported as 32.4 and the “Fold change HSA (2%)/Casein (0.1%)” value [3] is reported as 2.2. The IC50 [3, 7] was 631 nM, the “Binding (+/−HSA) Fold” value [3] was 2.2 and the Ki [3] was 1300 nM.
